Measured values: patent publication US20220218690A1, “MONTELUKAST SALTS AND PHARMACEUTICAL COMPOSITIONS CONTAINING THE SAME” (GENETIC S.P.A., priority 2019, published 2022)
Entries after “also recorded” stand apart in the source; their conditions may differ.

Legend:
[1] = tested on: bronchial hyperreactivity
Description: (§1) Mouse model of asthma. Female BALB/c mice (8 weeks: Charles River) were sensitized through subcutaneous administration of Ovalbumin (100 μg dissolved in 400 μl of AlOH3 13.5 mg/ml) on days 0 and 8, on the twenty-first day the mice were stimulated by aerosolic administration of Ovalbumin (3% for twenty minutes). The mice were sacrificed after 48 hours and the bronchi used for the evaluation of bronchial reactivity at carbachol and salbutamol. The drugs were administered intraperitoneally prior to each exposure to the allergen. […] Pulmonary tissues were harvested and used for dosage of cytokines such as IL-4 and IL-13. In addition plasma levels of IgE were measured.

[2] = tested on: IgE; details: 0.3 mg/Kg; FIG. 18-A
Description: as §1

[3] = tested on: Paw mouse edema; details: 0.3 mg/kg intraperitoneal, 30 minutes before intraplantar carrageenin; FIG. 13
[4] = tested on: bronchial rings; details: Montelukast 1 μM, in vitro, FIG. 12

| SMILES | therapeutic efficacy in controlling the development of hyperreactivity to carbachol induced by sensitization ([1]; salt […] vs Formoterol 0.3 mg/kg and Montelukast 0.3 mg/kg (almost double molar dose), FIG. 16) | therapeutic efficacy in controlling the airway dysfunction induced by sensitization ([1]; salt at halved molar dose respect to single drugs) | IgE plasma levels [2] | anti-inflammatory effect [3] | effect of Montelukast preincubation on the bronchodilating response of Formoterol [4] |
| --- | --- | --- | --- | --- | --- |
| CC(C)(O)c1ccccc1CCC(SCC1(CC(=O)O)CC1)c1cccc(C=Cc2ccc3ccc(Cl)cc3n2)c1.COc1ccc(CC(C)NCC(O)c2ccc(O)c(NC=O)c2)cc1 (centres unmarked) [Montelukast formoterol salt, N-(2-(3-formamido-4-hydroxyphenyl)-2-hydroxyethyl)-1-(4-methoxy-phenyl)propan-2-aminium-2-(1-(((1-(3-(2-(7-chloroquinolin-2-yl)vinyl)-phenyl)-3-(2-(2-hydroxypropan-2-yl)phenyl)propyl)thio-)methyl)cyclopropyl)acetate] | significantly higher than the parent drugs Formoterol and Montelukast | significantly higher than Formoterol and Montelukast; also recorded: more efficiently reverses both airway effects |  |  |  |
| CC(C)(O)c1ccccc1CC[C@@H](SCC1(CC(=O)O)CC1)c1cccc(/C=C/c2ccc3ccc(Cl)cc3n2)c1 [Montelukast, (R,E)-2-(1-((1-(3-(2-(7-Chloroquinolin-2-yl)vinyl)phenyl)-3-(2-(2-hydroxypropan-2-yl)phenyl)propylthio)-methyl)cyclopropyl)acetic acid] |  |  | unaffected | induces an anti-inflammatory effect | does not alter the bronchodilating response of the Formoterol, preserves its efficacy |
